Molecules are shown by their SMILES.

This note sets out measurements from patent US5733920A, “Inhibitors of cyclin dependent kinases” (Mitotix, Inc., priority 1995, dated 1998).

The assay has as its target T1, CDK4/Cyclin D1 (Homo sapiens, UniProt P11802).
T1 construct: made in house; host or cells: insect cells (crude cell lysate)
Description: Cyclin D1/cdk4 phosphoRb in vitro kinase assay. It is filed as biochemical. Particulars: for IC50: insect cell lysates expressing cyclin D1 and cdk4, GST-Rb substrate, 32P-ATP, read-out: IC50, inhibition of CDK4/Cyclin D1; for relative potency of inhibition of CDK4/cyclin D1: compared with Compound 4 and Compound 1 (esters or ethers). The source says: The efficacy of a compound in inhibiting the activity of cyclin-dependent kinases can be determined by several methods well known in the art, such as a kinase assay, as described in the Examples section herein, or as described in Losiewics, M. D., et al. (1994) Biochem. Biophys. Res. Commun. 201, 589. Thus, a complex containing the cyclin-dependent kinase and a cyclin is first isolated either from a recombinant source, or immunoprecipitated from cells synchronized at the stage at which a particular cyclin-dependent kinase is present at high levels in the cell. The immunoprecipitates are then incubated in the presence of radiolabelled ATP and an appropriate substrate with various amounts of the inhibitor. The amount of radioactivity associated with the substrate protein can then be determined by various methods well known in the art. The substrate used for the kinase assay will depend on the specific kinase. Typically, histone H1 or CDK1 S1 is used as a substrate for the CDC2 kinase and the retinoblastoma protein is used as a substrate in a kinase assay for CDK4. The kinases, cyclins, and substrates used in the in vitro kinase assay can be proteins isolated from mammalian cells, or alternatively, they can be proteins produced recombinantly, such as in E. Coli.
This example is an illustration of the cyclin-dependent kinase inhibitory activity of the compounds of the invention. The kinase inhibitory activity of several compounds of the invention was determined using an in vitro kinase assay in which the kinase activity of the CDK4 kinase was measured using a Cyclin D1/cdk4 phosphoRb Assay. Briefly, the assay employs cell lysates from insect cells expressing cyclin D1 and cdk4 kinase. The cyclin/cdk lysate is combined in a microtitre-type plate along with a kinase compatible buffer, ^32 P-labeled ATP, a GST-Rb fusion protein, and the test agent. The kinase reaction is allowed to proceed with the radiolabeled ATP, then effectively stopped by the addition of a large excess of unlabeled ATP. The GST-Rb protein is sequestered on a GSH-Sepharose bead suspension, washed, resuspended in scintilant, and ^32 P activity detected in a scintillation counter. The concentration of compound at which 50% of the kinase activity was blocked (IC50) was calculated for each compound.

T1 sequence (P11802 whole entry, species assumed): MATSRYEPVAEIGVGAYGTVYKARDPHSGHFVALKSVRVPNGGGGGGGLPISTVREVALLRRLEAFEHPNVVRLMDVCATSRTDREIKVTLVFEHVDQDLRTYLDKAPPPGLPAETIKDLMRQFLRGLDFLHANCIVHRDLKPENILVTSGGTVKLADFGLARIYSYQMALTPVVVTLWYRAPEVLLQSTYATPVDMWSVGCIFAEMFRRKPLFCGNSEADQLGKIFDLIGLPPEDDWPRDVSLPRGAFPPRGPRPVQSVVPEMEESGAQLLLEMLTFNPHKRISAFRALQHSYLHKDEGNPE
T1 sequence (P24385 whole entry partner, species assumed): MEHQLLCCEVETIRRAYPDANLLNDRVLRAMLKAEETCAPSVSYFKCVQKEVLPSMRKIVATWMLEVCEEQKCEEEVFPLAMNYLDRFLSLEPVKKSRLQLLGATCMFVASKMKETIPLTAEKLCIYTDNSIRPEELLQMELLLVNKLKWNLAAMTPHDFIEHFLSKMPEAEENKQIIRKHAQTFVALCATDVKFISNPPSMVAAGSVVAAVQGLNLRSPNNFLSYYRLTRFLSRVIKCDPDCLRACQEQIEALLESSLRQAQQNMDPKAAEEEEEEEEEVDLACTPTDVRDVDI

With `CN1CC[C@H](O)[C@H](c2c(O)cc(O)c3c(=O)cc(-c4ccccc4Cl)oc23)C1` (relative stereo) [Compound 14], the IC50 was under 150 µM.

Take `CN1CCC(c2c(O)cc(O)c3c(=O)cc(-c4ccccc4Cl)oc23)C(=O)C1` (centres unmarked) [Compound 5]: the “relative potency of inhibition of CDK4/cyclin D1” value is recorded as “much more potent inhibitors of CDK4/cyclin D1” and the IC50 was under 50 µM. In the case of `COc1cc(OC)c2c(=O)cc(-c3ccccc3Cl)oc2c1C1=CCN(C)CC1` [Compound 1], the IC50 is under 250 µM. `CN1CC=C(c2c(O)cc(O)c3c(=O)cc(-c4ccccc4Cl)oc23)CC1` [Compound 3]: the “relative potency of inhibition of CDK4/cyclin D1” value is “much more potent inhibitors of CDK4/cyclin D1” and the IC50 is under 50 µM. `COc1cc(OC)c2c(=O)cc(-c3ccccc3Cl)oc2c1[C@@H]1CN(C)CC[C@@H]1O` (relative stereo) [Compound 13]: the IC50 is under 250 µM. Regarding `COc1cc(OC)c2c(=O)cc(-c3ccccc3Cl)oc2c1C1CCN(C)CC1=O` (centres unmarked) [Compound 4], the IC50 stood at 230 µM.
